Measurements published in US20050277586A1, “Peptide chemically modified with polyethylene glycol” (priority 2002, published 2005).
No end group written: not given here.

How the values were obtained:
[1] = Toxicity of the peptide, tail vein administration; format: in vivo; settings: female BALB/c mouse, 5 mg/kg
Protocol: The peptide used in the present invention was administered to a mouse from its tail vein to thereby evaluate its toxicity. The mouse used was a female BALB/c mouse of 5 week old, and the peptide was used at a dose of 5 mg/kg.

[2] = tested on: Vero cell, T24 cell, A549 cell; assay: Nucleic acid-introducing ability, luciferase-expressing plasmid (procedure of Example 9); format: cell-based
Source text: A cell line established from monkey kidney (Vero cell) and a human bladder cancer cell (T24 cell) purchased from American Type Culture Collection (ATCC) and human lung cancer cell (A549 cell) purchased from Dainippon Pharmaceutical were inoculated on a 24 well culture plate (manufactured by NALGEN NUNC) at 1×10^5 cells/well. Vero cell and A549 cell were cultivated in DMEM (manufactured by Life Technologies Oriental) supplemented with 10% fetal bovine serum (hereinafter referred to as FBS, manufactured by NICHIREI), and T24 cell was cultivated in McCoy's 5a (manufactured by Life Technologies Oriental) supplemented with 10% FBS in 5% CO2 atmosphere at 37° C. for 24 hours. After removing the medium, opti-MEM (manufactured by Life Technologies Oriental) prepared to have the concentration of the luciferase-expressing plasmid prepared in Example 7 of 1 μg/mL and the concentration of the peptide prepared in Example 1 of 1.25, 2.5, or 5 μM was added, and the cells were cultivated for 5 hours. Next, in the case of Vero cell and A549 cell, the culture medium was replaced with DMEM supplemented with 10% FBS, and in the case of T24 cell, the medium was replaced with McCoy's 5a supplemented with 10% FBS, and cultivation was continued in 5% CO2 atmosphere and at 37° C. for another 24 hours. The luciferase activity expressed in the cell was then measured by the method instructed in luciferase assay system (manufactured by Promega). To be more specific, the cells were washed with phosphate-buffered saline (hereinafter referred to as PBS, manufactured by SIGMA), and the cells were lyzed with Passive Lysis Buffer attached to the kit.
20 μL of this cell lysate and 100 μL of the Luciferase Assay Reagent II attached to the kit was added to a fluorescence-measuring plate (Microlite™ 1 plate, manufactured by Dynatech), and after mixing, fluorescence was measured for 1 second by using a multilabel counter (ARVO™ SY1420 MULTILABEL COUNTER, manufactured by Wallac Beltold.
Concentration of the protein in the cell lysate was measured by mixing 8 μL of the cell lysate and 200 μL of the protein assay solution (manufactured by Biorad) with 792 μL of ultrapure water in a disposable cuvette (UV fluorescent cuvette A204X, manufactured by Funakoshi), allowing the mixture to stand for 5 minutes at room temperature, and measuring the absorption at 595 nm with a spectrophotometer (DU640, manufactured by Beckman). Bovine serum albumin (BSA) was used for the standard protein. By using the thus obtained results, count per 1 second per 1 mg of protein of the cell lysate was calculated to thereby use the count as the luciferase activity, and the highest count in the three conditions of different peptide concentration was designated the gene-introducing ability of the peptide.

[3] = Affinity for phosphatidyl serine by surface plasmon resonance (Biacore 2000); format: binding; settings: in the presence of 0.1 mg/mL BSA
Protocol: The specific affinity of the peptide for phosphatidyl serine was evaluated by means of surface plasmon resonance (SPR) using Biacore 2000 (manufactured by Biacore). To be more specific, phosphatidyl choline was immobilized on flow cell 1, and 50% of phosphatidyl serine and 50% of phosphatidyl choline were immobilized on flow cell 2 of HPA chip (manufactured by Biacore), and ability of the peptide to bind to the phospholipid was evaluated in the presence of 0.1 mg/mL BSA to thereby evaluate the affinity.

[4] = Measurement of CD spectrum with and without SDS; format: physicochemical; settings: 10 mM phosphate buffer pH 7, 50 mM NaCl, 35° C.; for α-helix structure in CD spectroscopy in the presence of SDS: 5 mM SDS
Protocol: The peptide dissolved in 10 mM phosphate buffer (pH=7) containing 50 mM NaCl was evaluated for its CD spectrum in the presence and in the absence of 5 mM SDS by using a circular dichroism spectrophotometer (J-500A, manufactured by JASCO). The cell length was 1 mm. The measurement was conducted at 35° C. for 6 times in total.

Vero cell = assay: Storage stability of the complex with nucleic acid (gene-introducing activity after 4° C., 1 week); format: cell-based, monkey; settings: complex with luciferase plasmid stored at 4° C. for 1 week
Protocol: Luciferase-expressing plasmid was introduced in Vero cell in accordance with the procedure described in Example 9 by using the opti-MEM prepared to have a concentration of the luciferase-expressing plasmid prepared in Example 7 of 2 μg/mL and a concentration of the peptide of SEQ ID NO: 4 prepared in Example 1 of 5 μM to thereby measure the luciferase activity. The opti-MEM containing plasmid and peptide used were the one which had been prepared immediately before the gene introduction, and the one which had been prepared 1 week (7 days) in advance and stored at 4° C.
For the purpose of reference, gene-introducing activity of Lipofectin and LipofectAMINE 2000 (manufactured by Life Technologies Oriental), which are commercially available plasmid-introducing agents, were also evaluated by mixing these reagent with luciferase-expressing plasmid in accordance with the attached protocol, and evaluating their gene-introducing activity after storing at 4° C. for 1 week.

[5] = tested on: Lewis lung carcinoma cell; assay: In vivo HSV-tk gene introduction plus GCV, survival of mice with Lewis lung carcinoma in abdominal cavity; parameters: species or system mouse; settings: GCV only, 30 mg/kg/day
Protocol: To be more specific, 1×10^5 Lewis lung carcinoma cells were transplanted in the abdominal cavity of a C57BL/6 mouse (purchased from Charles River JAPAN), and a mixture of 10 μg of the HSV-tk-expressing plasmid prepared in Example 7 and 40 nmol of the peptide of SEQ ID NO: 16 prepared in Example 1 was administered in the abdominal cavity after the cell transplantation. The mouse was also administered with GCV at a dose of 30 mg/kg/day from 1st to 8th day after the transplantation.

Molecule: LARLLARLLARLLRALLRALLRAL [SEQ ID NO: 27]
- Toxicity after tail vein administration [1]: died immediately after the administration

Molecule: SEQ ID NO: 25: same amino acid composition as SEQ ID NO: 1 but with an utterly random amino acid sequence (TIRYRPSHQIRLRAVLHLWIRYRPSHQIRLRAVLHWS) [reference compound]
- Ability of introducing the nucleic acid into a cell ([2]; procedure of Example 9): neither the nucleic acid-introducing ability
- Binding to flow cell 2 (50% phosphatidyl serine, 50% phosphatidyl choline) and flow cell 1 (phosphatidyl choline) [3]: showed no binding
- α-helix structure in CD spectroscopy in the presence of SDS [4]: no α-helix structure is found even in the presence of SDS

Molecule: SEQ ID NO: 4: SEQ ID NO: 1 with one or two locations in the 18 amino acid sequence substituted (TRYLRIHPRSWLHQIALRLRYLRIHPRSWLHQIALRS)
- Nucleic acid-introducing ability ([2]; luciferase plasmid 1 μg/mL, highest count of peptide 1.25, 2.5 or 5 μM, cell line not stated): 4+ (10,000,000 to less than 100,000,000)
- Gene-introducing activity after storage relative to freshly prepared complex (Vero cell): substantially equivalent
- α-helix structure in CD spectroscopy in the presence of SDS [4]: are in α-helix structure in the presence of SDS
- α-helix structure in CD spectroscopy in the absence of SDS ([4]; no SDS): do not take α-helix structure in an aqueous solution solely containing an inorganic salt

Molecule: Nc1nc(O)c2ncn(COC(CO)CO)c2n1 [GCV, ganciclovir]
- Average survival period [5]: 14 days
